Assay results reported in article PMC8333425, “Discovery of a dual Ras and ARF6 inhibitor from a GPCR endocytosis screen” (Nature Communications, 2021).
Where “and” joins values, the source holds several entries; their conditions need not be identical. Equal entries are not always repeated.

Target: T1, β-arrestin/AP-2 complex (Homo sapiens, UniProt P63010)
T1 construct: expressed in transfected cells; host or cells: HEK293SL
T1 sequence (P63010 1-937): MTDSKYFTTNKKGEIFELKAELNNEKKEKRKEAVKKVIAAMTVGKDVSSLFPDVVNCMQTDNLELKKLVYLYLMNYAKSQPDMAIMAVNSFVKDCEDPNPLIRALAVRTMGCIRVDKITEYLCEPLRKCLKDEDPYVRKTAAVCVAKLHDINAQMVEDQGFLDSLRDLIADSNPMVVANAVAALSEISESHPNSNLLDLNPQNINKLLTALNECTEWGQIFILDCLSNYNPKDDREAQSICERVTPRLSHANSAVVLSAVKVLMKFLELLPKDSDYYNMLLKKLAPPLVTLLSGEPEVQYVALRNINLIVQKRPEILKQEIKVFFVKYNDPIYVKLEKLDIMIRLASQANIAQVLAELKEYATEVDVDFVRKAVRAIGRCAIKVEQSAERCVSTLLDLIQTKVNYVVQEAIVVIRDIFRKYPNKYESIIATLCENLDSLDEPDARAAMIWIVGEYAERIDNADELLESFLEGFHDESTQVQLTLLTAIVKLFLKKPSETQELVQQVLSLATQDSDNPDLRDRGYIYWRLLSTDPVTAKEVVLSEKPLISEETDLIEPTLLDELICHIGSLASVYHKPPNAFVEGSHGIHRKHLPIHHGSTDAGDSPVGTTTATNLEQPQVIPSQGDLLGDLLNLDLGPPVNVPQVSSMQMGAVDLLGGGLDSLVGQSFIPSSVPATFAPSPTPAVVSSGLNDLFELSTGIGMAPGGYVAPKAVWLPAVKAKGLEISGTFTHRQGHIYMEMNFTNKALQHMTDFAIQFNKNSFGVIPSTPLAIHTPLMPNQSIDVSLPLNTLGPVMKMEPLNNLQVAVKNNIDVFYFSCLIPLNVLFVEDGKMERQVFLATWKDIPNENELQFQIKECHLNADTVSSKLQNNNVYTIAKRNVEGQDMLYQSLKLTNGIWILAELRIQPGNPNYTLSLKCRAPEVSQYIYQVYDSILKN
Experiment: BRET sensor of β-arrestin2 binding to AP-2 (β2-Adaptin-YFP), AT1R-mediated
Format: cell-based
Settings: for AngII-promoted BRET, binding of β-arrestin2 to AP-2: individual experiments
Procedure: HEK293 cells were transfected with a BRET sensor that monitors the interaction between β-arrestins and the β-appendage of AP-2 (Fig. 2a)[26],[33]. […] The small GTPase ARF6, which binds β-arrestins and facilitates AP-2 and clathrin recruitment at the PM, is also necessary for CCPs initiation and receptor internalization. Therefore, ARF6 activity was assessed using the protein-3 binding domain (PBD) of the golgi-associated, gamma adaptin ear-containing, ARF-binding protein 3 (GGA3) fused to GST (GST-GGA3-PBD) in a pull-down assay, which allows the detection of GTP-bound ARF6 in cells[34] (Fig. 2b). […] This inhibition was selective for ARF6 since 21 had no effect on AT1R-dependent ARF1 activation (Supplementary Fig. 2a). We also devised a BRET assay to quantitatively assess 21’s action on ARF activity. The ARF BRET assay was created using the GGA3-PBD fused to RlucII (GGA3-PBD-RlucII) and the rGFP anchored at the PM (rGFP-CAAX) (Supplementary Fig. 3a). […] 21 blocked ARF’s activation by 40–60% following AT1R stimulation (Fig. 2c).
HEK293SL cells were seeded at a density of 7.5 × 10^5 cells per 100-mm dish and 24 h later, transiently transfected as such. For receptor internalization experiments, cells were transfected with 0.12 μg AT1R-RlucII, B2R-RlucII, or β2AR-RlucII and 0.48 μg of either rGFP-CAAX (to assess removal from the PM) or rGFP-FYVE (to assess accumulation in the endosomes). For β-arrestin recruitment assays, cells were transfected with 0.48 μg of receptor-YFP along with 0.12 μg of β-arrestin-RlucII. For β-arrestin/AP-2 binding experiments, cells were transfected with 1 μg Flag-AT1R, 1 μg β2-Adaptin-YFP, and 0.12 μg β-arrestin2-RlucII. For G protein activation, cells were transfected with 3 μg of sp-Flag-AT1R along with either 4.5 μg of the Gαq-polycistronic BRET sensor or 0.24 μg of the Gαi3-RlucII and 0.6 μg of GFP10-Gγ2 and Gβ1 sensors or 0.12 μg PKN-RBD-RlucII and 0.48 μg of rGFP-CAAX. For PKC activation, cells were transfected with 3 μg of sp-Flag-AT1R and 0.18 μg of the PKC sensor. For GTPase activation experiments, cells were transfected with 1 μg Flag-AT1R, 0.48 μg of rGFP-CAAX, and either 0.12 μg of GGA3-PBD-RlucII, PAK-CRIB-RlucII or Raf-RBD-RlucII. For biosensor validation experiments, cells were additionally transfected with 500 ng Flag-K-Ras-WT, Flag-K-Ras-G12V, Flag-K-Ras-SOS-CAAX, HA-ARF6-WT, HA-ARF6-T27N, Myc-Rac1-WT, Myc-Rac1-Q61L or Myc-Rac1-T17N. For PI3K/Akt activation experiments, cells were transfected with 0.48 μg of rGFP-CAAX and 0.12 μg of Akt (PH)-RlucII. After 18 h of transfection, the media was replaced and cells were divided for subsequent experiments. Cells were detached and seeded onto poly-L-ornithine-coated 96-well flat white bottom plates (BrandTech Scientific) at a density of 2.5 × 10^4 cells per well in media. The next day, cells were washed once with Tyrode’s buffer (140 mM NaCl, 2.7 mM KCl, 1 mM CaCl2, 12 mM NaHCO3, 5.6 mM D-glucose, 0.5 mM MgCl2, 0.37 mM NaH2PO4, 25 mM HEPES, pH 7.4) and left in Tyrode’s buffer. For kinetics of β-arrestin recruitment or β-arrestin binding to receptor and AP-2 experiments, cells were serum starved for 30 min, pretreated with 21 (50 µM) or Barbadin (100 µM) for 30 min, stimulated with 100 nM AngII or 1 µM BK and BRET signals were monitored at indicated times using a Victor X Light plate reader (PerkinElmer). Coelenterazine H (final concentration of 5 µM) was added 3–5 min prior to BRET measurements. Filter set was 460/80 nm and 535/30 nm for detecting the RlucII Renilla luciferase (donor) and YFP (acceptor) light emissions, respectively. The BRET ratio was determined by calculating the ratio of the light emitted by YFP over the light emitted by the RlucII. For G protein activation, cells were serum starved, pretreated with compounds for 30 min, stimulated with 100 nM AngII for 2 min (Gαq, Gαi3, and Rho sensors) or 5 min (PKC sensor). […]

Row | Structure (SMILES) | AngII-promoted BRET, binding of β-arrestin2 to AP-2 (AngII + Barbadin (100 μM), time 0 min) | AngII-promoted BRET, binding of β-arrestin2 to AP-2 (AngII + Barbadin (100 μM), time 2 min) | AngII-promoted BRET, binding of β-arrestin2 to AP-2 (AngII + Barbadin (100 μM), time 4 min) | AngII-promoted BRET, binding of β-arrestin2 to AP-2 (AngII + Barbadin (100 μM), time 8 min) | AngII-promoted BRET, binding of β-arrestin2 to AP-2 (AngII + Barbadin (100 μM), time 12 min) | AngII-promoted BRET, binding of β-arrestin2 to AP-2 (AngII + Barbadin (100 μM), time 20 min) | AngII-promoted BRET, binding of β-arrestin2 to AP-2 (AngII + Barbadin (100 μM), time 24 min) | inhibition of the formation of the β-arrestin/AP-2 complex mediated by AT1R (Barbadin 100 µM) | inhibition at 50 µM (21 at 50 µM, read-out: inhibition of the AngII-mediated β-arrestin/AP-2 complex formation) [%] | AngII-promoted BRET, binding of β-arrestin2 to AP-2 (AngII + Comp 21 (50μM), time 0 min) | AngII-promoted BRET, binding of β-arrestin2 to AP-2 (AngII + Comp 21 (50μM), time 2 min) | AngII-promoted BRET, binding of β-arrestin2 to AP-2 (AngII + Comp 21 (50μM), time 4 min) | AngII-promoted BRET, binding of β-arrestin2 to AP-2 (AngII + Comp 21 (50μM), time 8 min) | AngII-promoted BRET, binding of β-arrestin2 to AP-2 (AngII + Comp 21 (50μM), time 12 min) | AngII-promoted BRET, binding of β-arrestin2 to AP-2 (AngII + Comp 21 (50μM), time 20 min) | AngII-promoted BRET, binding of β-arrestin2 to AP-2 (AngII + Comp 21 (50μM), time 24 min)
1 | Nn1cnc2scc(-c3ccc(Cc4ccccc4)cc3)c2c1=O [Barbadin, reference compound] | 0 | 0.00931 and 0.01844 and 0.00859 | 0.01939 and 0.02951 and 0.01857 | 0.01773 and 0.0324 and 0.02267 | 0.01829 and 0.0336 and 0.02027 | 0.02374 and 0.03345 and 0.02061 | 0.01867 and 0.03563 and 0.02365 | more than 50% | – | – | – | – | – | – | – | –
2 | CC(C)C(=O)N1CCN(c2ccc(NC(=O)c3cc4ccccc4o3)cc2Cl)CC1 [Compound 21] | – | – | – | – | – | – | – | – | ≤ 20 | 0 | 0.0291 and 0.02266 and 0.02708 | 0.03981 and 0.03342 and 0.03976 | 0.0471 and 0.04211 and 0.04647 | 0.04695 and 0.03931 and 0.04772 | 0.04571 and 0.04297 and 0.04991 | 0.04875 and 0.04367 and 0.04987
